Assays:
human MCHR1 [1] = target: T1, human MCHR1 (Homo sapiens, UniProt Q99705); test: 125I-MCH competitive binding assay (SPA) with clone 43 membranes; details: competition with 125I-MCH, clone 43 membranes (AV12 cells expressing human MCHR1); Ki from IC50 by Cheng-Prusoff; tested in duplicate
T1 construct: The full-length cDNA for human MCHR1 was cloned from a human adult brain cDNA library; expressed in transfected cells; host or cells: AV12 cells previously transfected with Gα15
Source text: (§1) The full-length cDNA for human MCHR1 was cloned from a human adult brain cDNA library (Edge Biosystems, Cat. 38356) by standard polymerase chain reaction (PCR) methodology employing the following primers: sense, 5′-GCCACCATGGACCT GGAAGCCTCGCTGC-3′; anti-sense, 5′-[…]-3′.
(§2) In order to generate cell lines stably expressing MCHR1, the insert was then subcloned into the Xba I and Not I sites of pcDNA(+)-3.1-neomycin (Invitrogen). After purification by Qiagen Maxi-prep kit (QIAGEN, Inc.), the plasmid was transfected by Fugene 6 (Roche Applied Science) into AV12 cells that had been previously transfected with the promiscuous G protein Gα15. The transfected cells were selected by
(§3) Both the ^125I-MCH binding and functional GTPγ^35S binding assays employed membranes isolated from a clone designated as clone 43. Typically, cells from 20 confluent T225 flasks were processed by washing the monolayers in cold phosphate-buffered saline (PBS), scraping the cells into same and re-suspending the cell pellet in 35 ml of 250 mM Sucrose, 50 mM HEPES, pH 7.5, 1 mM MgCl2, 24 μg/ml DNase I, and protease inhibitors (1 Complete® tablet, per 50 ml of buffer prepared, Roche Diagnostics). After incubation on ice for 5 min, cells were disrupted with 20–25 strokes of a Teflon/Glass homogenizer attached to an overhead motorized stirrer, and the homogenate was centrifuged at 40,000 rpm in Beckman Type 70.1 Ti rotor. The pellets were re-suspended in 250 mM Sucrose, 50 mM HEPES, pH 7.5, 1.5 mM CaCl2, 1 mM MgSO4 and protease inhibitors by Teflon/Glass homogenization to achieve a protein concentration of ˜3–5 mg/ml (Pierce BCA assay with Bovine serum albumin as standard).
Aliquots were stored at −70° C. Binding of compounds to MCHR1 was assessed in a competitive binding assay employing ^125I-MCH, compound and clone 43 membranes. Briefly, assays are carried out in 96-well Costar 3632 white opaque plates in a total volume of 200 μl containing 25 mM HEPES, pH 7.5, 10 mM CaCl2, 2 mg/ml bovine serum albumin, 0.5% dimethyl sulfoxide (DMSO), 4 μg of clone 43 membranes, […] ^125I-MCH (NEN), 1.0 mg of wheat germ agglutinin scintillation proximity assay beads (WGA-SPA beads, Amersham) and a graded dose of test compound. Non-specific binding is assessed in the presence of 1 μM unlabeled MCH. Bound ^125I-MCH is determined by placing sealed plates in a Microbeta Trilux (Wallac) and counting after a 5 hr delay.
IC50 values (defined as the concentration of test compound required to reduce specific binding of ^125I-MCH by 50%) are determined by fitting the concentration-response data to a 4-parameter model (max response, min response, Hill coefficient, IC50) using Excel. Ki values are calculated from IC50 values using the Cheng-Prusoff approximation as described by Cheng et al. (Relationship between the inhibition constant (Ki) and the concentration of inhibitor which causes 50% inhibition (IC50) of an enzymatic reaction, Biochem. Pharmacol., 22: 3099–3108 (1973)). The Kd for ^125I-MCH is determined independently from a saturation binding isotherm.

human MCHR1 [2] = target: T1, human MCHR1; test: Inhibition of MCH-stimulated GTPγ35S binding to clone 43 membranes (functional antagonism); format: biochemical; details: inhibition of GTPγ35S binding stimulated by 40 nM MCH (about EC90), Kb from IC50 by modified Cheng-Prusoff (Leff and Dougal), tested in duplicate
Source text: as §1, §2, §3
Functional antagonism of MCH activity is assessed by measuring the ability of test compound to inhibit MCH-stimulated binding of GTPγ^35S to clone 43 membranes. Briefly, assays are carried out in Costar 3632 white opaque plates in a total volume of 200 μl containing 25 mM Hepes, pH 7.5, 5 mM MgCl2, 10 μg/ml saponin, 100 mM NaCl, 3 μM GDP, 0.3 nM GTPγ^35S, 40 nM MCH (approximately equal to EC90), 20 μg of clone 43 membranes, 1.0 mg of wheat germ agglutinin scintillation proximity assay beads (WGA-SPA beads, Amersham) and a graded dose of test compound. The plates are sealed and left for 16–18 hrs at 4° C. After a 1 hr delay to allow plates to equilibrate to ambient temperature, bound GTPγ^35S is determined by counting in a Microbeta Trilux (Wallac).
IC50 values (defined as the concentration of test compound required to reduce MCH-stimulated GTPγ^35S binding by 50%) are determined by fitting the concentration-response data to a 4-parameter model (max response, min response, Hill coefficient, IC50) using Excel. Kb values are calculated from IC50 values using a modification of the Cheng-Prusoff approximation as described by Leff and Dougal (Further concerns over Cheng-Prusoff analysis, Trends Pharmacol. Sci. 14: 110–112 (1993)) after verifying competitive antagonism by Schild analysis. The EC50 for MCH alone is determined independently. The MCHR1 binding and functional activities of 24 compounds in the oxadiazole series (tested in duplicate) are shown in Table 1

[3] = system: Diet-induced obese male Long-Evans rats; test: Block of MCH-stimulated food intake after intracerebroventricular injection; format: in vivo, rat; details: 82 nmol compound plus 2.1 nmol MCH, ICV; food intake at 2, 4 and 6 hours after injection; n=6 per group; p<0.05 vs. MCH alone; FIG. 1
Protocol: Diet-induced obese male Long-Evans rats (Harlan, Ind.) weighing 500–550 g at time of surgery were anesthetized with isoflurane. Stainless steel cannula guides (5 mm length, 26 gauge, Plastics One, Va.) were stereotaxically implanted in the lateral ventricle anteroposteriority: 0.8 mm caudal to bregma; and lateral: 1.5 mm from midline suture. Animals were individually housed in a temperature regulated room (24° C.) with a reverse 12 hour light/dark cycle (dark 10:00/22:00). Water and food (Teklad 95217, Harlan, Wis.) were available ad libitum. After surgery, animals were allowed to recover 7 days before experimental use. On test day, food was removed 1 hr prior to testing and animals (4 groups, n=6 per group) were injected between 0900 and 1000 with 5 μl of vehicle (artificial CSF), 2.1 nmol MCH, 82 nmol of compound of example 136, and MCH plus compound of example 136. Cumulative food intake was measured at 2, 4 and 6 hours after injection.

T1 sequence (Q99705 whole entry): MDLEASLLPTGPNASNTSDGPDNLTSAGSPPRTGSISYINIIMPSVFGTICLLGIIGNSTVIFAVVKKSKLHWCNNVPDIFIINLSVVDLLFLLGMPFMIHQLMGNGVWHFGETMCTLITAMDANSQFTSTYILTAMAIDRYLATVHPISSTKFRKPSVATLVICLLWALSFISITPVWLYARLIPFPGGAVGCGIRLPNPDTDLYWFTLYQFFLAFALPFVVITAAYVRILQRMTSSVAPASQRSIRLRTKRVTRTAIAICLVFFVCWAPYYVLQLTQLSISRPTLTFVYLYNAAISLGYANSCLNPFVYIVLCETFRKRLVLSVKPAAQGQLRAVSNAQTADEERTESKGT

| SMILES | Ki (human MCHR1 [1]) | Kb (human MCHR1 [2]) | effect on orexigenic effect of exogenous MCH (cumulative food intake) [3] |
| --- | --- | --- | --- |
| c1ccc(OCCSCc2nnc(-c3ccc(OCCCN4CCCC4)cc3)o2)cc1 [drawing 51] | 0.0143 µM | 0.0181 µM | – |
| c1ccc(OCCSCc2nnc(-c3ccc(OCc4cccnc4)cc3)o2)cc1 [drawing 61] | 2.9 µM | 6.89 µM | – |
| CC(C)N(CCCCOc1ccc(-c2nnc(CSCCOc3ccccc3)o2)cc1)C(C)C [drawing 59] | 0.0633 µM | 0.0521 µM | – |
| CN(C)CCCOc1ccc(-c2nnc(CSCCOc3ccccc3)o2)cc1 [drawing 52] | 0.016 µM | 0.0119 µM | – |
| CN(C)CCCOc1ccc(-c2nnc(CSCc3cc4ccccc4s3)o2)cc1 | 0.0484 µM | 0.139 µM | – |
| CC(C)N(CCCOc1ccc(-c2nnc(CSCCOc3ccccc3)o2)cc1)C(C)C [drawing 60] | 0.14 µM | 0.145 µM | – |
| CN(C)CCCOc1ccc(-c2nnc(CSCc3ccc4ccccc4c3)o2)cc1 | 0.0224 µM | 0.0506 µM | – |
| c1ccc(OCCSCc2ncc(-c3ccc(OCCCN4CCCCC4)cc3)o2)cc1 | 0.0179 µM | 0.0159 µM | – |
| C(=C\c1ccc(-c2nnc(CSCCOc3ccccc3)o2)cc1)/CN1CCCC1 [Example 136, (E)-2-{[(2-phenoxyethyl)thio]methyl}-5-[4-(3-pyrrolidinopropen-1-yl)phenyl]-1,3,4-oxadiazole] | – | – | completely blocked the orexigenic effect of exogenous MCH |
| CN(C)CCCOc1ccc(-c2nnc(CSCc3cc4ccccc4o3)o2)cc1 | 0.0161 µM | 0.0354 µM | – |
| c1ccc(OCCSCc2nnc(-c3ccc(OCCCCN4CCCCCC4)cc3)o2)cc1 [drawing 57] | 0.0379 µM | 0.0313 µM | – |
| CN(C)CCCOc1ccc(-c2coc(CSCCOc3ccccc3)n2)cc1 | 0.035 µM | 0.0415 µM | – |

Continued, in another order:

| Ki (human MCHR1 [1]) | Kb (human MCHR1 [2]) | SMILES | effect on orexigenic effect of exogenous MCH (cumulative food intake) [3] |
| --- | --- | --- | --- |
| 0.0116 µM | 0.0073 µM | c1ccc(OCCSCc2ncc(-c3ccc(OCCN4CCCCC4)cc3)o2)cc1 | – |
| 0.0104 µM | 0.0162 µM | CN(C)CCNC(=O)Nc1ccc(-c2nnc(CSCCOc3ccccc3)o2)cc1 | – |
| 0.0019 µM | 0.006 µM | C(=C\c1ccc(-c2nnc(CSCCOc3ccccc3)o2)cc1)/CN1CCCC1 [drawing 38] | – |
| 0.0133 µM | 0.0094 µM | CN(C)CCOc1ccc(-c2cnc(CSCCOc3ccccc3)o2)cc1 | – |
| 0.0043 µM | 0.015 µM | CN(C)CCCOc1ccc(-c2cnc(CSCCOc3ccccc3)o2)cc1 | – |
| 0.0102 µM | 0.0165 µM | c1ccc(OCCSCc2ncc(-c3ccc(OCCCN4CCCC4)cc3)o2)cc1 | – |
| 0.0058 µM | 0.012 µM | c1ccc(OCCSCc2ncc(-c3ccc(OCCN4CCCC4)cc3)o2)cc1 | – |
| 0.0053 µM | 0.0136 µM | CN(C)CCOc1ccc(-c2nnc(CSCCOc3ccccc3)o2)cc1 [drawing 41] | – |
| 0.0129 µM | 0.0396 µM | CN1CCC[C@@H]1CCOc1ccc(-c2nnc(CSCCOc3ccccc3)o2)cc1 | – |
| 0.009 µM | 0.02 µM | O=C(NCCN1CCCC1)Nc1ccc(-c2nnc(CSCCOc3ccccc3)o2)cc1 | – |
| 0.0056 µM | 0.0147 µM | O=C(NCCN1CCCCC1)Nc1ccc(-c2nnc(CSCCOc3ccccc3)o2)cc1 [drawing 42] | – |
| 0.0037 µM | 0.0116 µM | CN(C)C/C=C/c1ccc(-c2nnc(CSCCOc3ccccc3)o2)cc1 | – |
| 0.0092 µM | 0.0198 µM | c1ccc(OCCSCc2nnc(-c3ccc(OCCN4CCCCC4)cc3)o2)cc1 [drawing 45] | – |

Reference: patent publication US7229987B2, “Multicyclic compounds for use as melanin concentrating hormone antagonists in the treatment of obesity and diabetes” (Eli Lilly and Company, priority 2002, dated 2007)
